Values joined by “and” are separate entries in the source; they are usually repeats but may differ in a detail not shown here. Equal entries are not always repeated.
Key:
[1] = tested on: VASP Ser239 phosphorylation; test: Immunoblotting of phospho-VASP (Ser239) in ADP-stimulated washed platelets, with or without PKA, PKG, PKC inhibitors; type: cell-based, rat; conditions: inhibitor 5 μmol/L before treatment with naringenin, ADP 10 μmol/L
Experimental: For in vitro platelet aggregation, aliquots of washed platelets were preincubated with vehicle or various concentrations of naringenin for 5 min and stimulated with ADP (10 μmol/L) under stirring at 37°C for 5 min. For ex vivo platelet aggregation, PRP was incubated at 37°C for 5 min and stimulated with ADP (5 μmol/L) under stirring at 37 °C. The platelet aggregation was terminated by adding ethylenediaminetetraacetic acid (EDTA; 10 mM). Total protein was prepared using RIPA lysis buffer and protein content was determined by bicinchoninic acid (BCA) protein assay kit. Equal amounts of platelet proteins (30 μg) were separated on 10% SDS polyacrylamide gel electrophoresis (SDS-PAGE) and then transferred to poly vinylidene difluoride (PVDF) membranes and subjected to western blot. Blots were blocked with TBS-Tween 20 containing 5% BSA and probed with primary antibodies diluted in blocking solution at 4°C overnight followed by incubation with the corresponding HRP secondary antibodies. The protein bands were visualized using enhanced chemiluminescence (ECL).
VASP is a substrate for cAMP- and cGMP- dependent protein kinases, which mediate cAMP- and cGMP-dependent inhibitory signaling in platelets, respectively. Increased cAMP levels followed by the activation of cAMP-dependent protein kinase A (PKA) phosphorylates VASP at position Ser157, whereas the elevation of cGMP leads to VASP phosphorylation at position Ser239 by cGMP-dependent protein kinase G (PKG) ([Aszódi et al., 1999]; [Li et al., 2003a]). To further examine whether naringenin modulates cAMP- or cGMP-mediated inhibitory signaling, the phosphorylation of VASP (Ser157 and Ser239) in washed platelets on stimulation with ADP were measured in the absence or presence of naringenin (100, 200, 400, and 800 μM). […] To further confirm the antiplatelet effects of naringenin through PKA-dependent signaling, the effects of naringenin on platelet aggregation were measured in the presence of PKG inhibitor (Rp-8-Br-PET-cGMPS) and PKA inhibitor (H89).
FIGURE 7 Naringenin promotes VASP phosphorylation. The effects of naringenin on phosphorylation of VASP (at positions Ser 157 and Ser239) were measured in washed platelets upon stimulation with ADP (10 μmol/L) by western blotting (A). The blots shown are representative of three separate experiments. The phosphorylation levels were quantified by ImageJ 1.47v software. The level of phosphorylation obtained with vehicle control (0 μM) was taken as 1 (B,C). R represents the phosphorylation level in resting platelets. Data are expressed as means ± SD (n = 3). *p < 0.05, ***p < 0.001 compared with the vehicle control group. VASP phosphorylation at Ser239 was also analyzed in washed platelets incubated with 5 μmol/L PKA (H89), 30 μmol/L PKG (Rp-8-Br-PET-cGMPS), or 5 μmol/L PKC (GF109203X) inhibitors before treatment with naringenin (D). Washed platelets were incubated with vehicle or naringenin (200 μmol/L) at 37°C in the presence or absence of 5 μmol/L PKA (H89) or 30 μmol/L PKG (Rp-8-Br-PET-cGMPS) inhibitors. After treatment, platelets were stimulated with ADP (10 μmol/L) to trigger aggregation (E). Data are expressed as means ± SD (n = 6). ***p < 0.001 compared with the ADP-treated group, ^# p < 0.05, ^### p < 0.001 compared with naringenin alone or H89 alone.

[2] = tested on: washed rat platelets; test: ADP (10 μM)-induced aggregation of washed rat platelets; type: cell-based; conditions: for Aggregation (%): raw data
Experimental: Platelet-rich plasma (PRP) was obtained, and after the addition of 100 ng/ml PGE1, platelets were pelleted at 900 × g for 10 min. […] Washed platelets were preincubated with vehicle (0.4% dimethyl sulfoxide) or various concentrations of naringenin in the presence of 2 mM CaCl2 for 5 min at 37°C, and then further stimulated by ADP (10 μM), thrombin (0.2 U/mL) or collagen (2 μg/ml). The maximum platelet aggregation rate was detected within 5 min with continuous stirring.
Platelet aggregation was induced by ADP using washed platelets and PRP. Washed platelets were preincubated with vehicle (containing 0.4% DMSO) or different doses (100, 200, 400, and 800 μM) of naringenin or naringin for 5 min before activation with ADP (10 μM) for 5 min.
(§1) FIGURE 1 Effects of naringenin and naringin on platelet aggregation. Chemical structure of naringin (A) and naringenin (B). The effects of naringin (C) or naringenin (D) on PRP were measured following stimulation with 10 μmol/L ADP. Rat washed platelet aggregation performed with or without different concentrations of naringin (E) or naringenin (F) was recorded after stimulation with 10 μmol/L ADP. Similarly, Washed platelet aggregation performed with vehicle or various concentrations of naringenin was recorded after stimulation with 0.2 U/mL thrombin (G) or 2 μg/ml collagen (H). WP represents washed platelets. Data are expressed as means ± SD (n = 6), the level of aggregation obtained at 5 min with vehicle-treated samples (0 μM) was taken as 100%. *p < 0.05, **p < 0.01, ***p < 0.001 compared with the vehicle control group.

[3] = tested on: washed rat platelets; test: as above; type: cell-based; conditions: H89 (5 μM)+ADP (10 μM); Figure 7E
[4] = tested on: PRP (platelet-rich plasma); test: ADP (10 μmol/L)-induced aggregation of PRP in vitro; type: cell-based, rat; conditions: PRP, ADP 10 μmol/L, single replicates; for Aggregation (%): raw data
Experimental: Washed rat platelets were prepared as described previously ([Gao et al., 2011]) with a minor modification. Briefly, rat blood was drawn from the abdominal aorta into the siliconized vacutainers containing 1:9 (v/v) 3.8% sodium citrate, supplemented with 100 ng/ml prostaglandin E1 (PGE1) and centrifuged at 300 × g for 6 min at room temperature. Platelet-rich plasma (PRP) was obtained, and after the addition of 100 ng/ml PGE1, platelets were pelleted at 900 × g for 10 min. Platelets were washed once in Tyrode’s buffer (12 mM NaHCO3, 138 mM NaCl, 5.5 mM glucose, 2.9 mM KCl, 2 mM MgCl2, 0.42 mM NaH2PO4, 10 mM HEPES, pH 7.4) containing 100 ng/ml PGE1, and finally resuspended in Tyrode’s buffer containing 0.02 U/mL apyrase to a final concentration of 4×10^8 cells/mL. Washed platelets were preincubated with vehicle (0.4% dimethyl sulfoxide) or various concentrations of naringenin in the presence of 2 mM CaCl2 for 5 min at 37°C, and then further stimulated by ADP (10 μM), thrombin (0.2 U/mL) or collagen (2 μg/ml). The maximum platelet aggregation rate was detected within 5 min with continuous stirring.
Platelet aggregation was induced by ADP using washed platelets and PRP. Washed platelets were preincubated with vehicle (containing 0.4% DMSO) or different doses (100, 200, 400, and 800 μM) of naringenin or naringin for 5 min before activation with ADP (10 μM) for 5 min. […] For example, naringenin, at doses of 100 and 800 μM, decreased ADP-induced platelet aggregation to 54.5 ± 6.2% and 6.3 ± 1.7%, respectively (n = 6; p < 0.001, control group platelet aggregation was taken as 100%) (Figure 1F). […] Because dietary flavonoids have been reported to bind plasma proteins and cause the lowering of inhibitory potency in PRP ([Wright et al., 2013]), the ability of naringenin and naringin on platelet function in PRP was investigated to compare their effects with washed platelets.
as §1

## CN(C)CCCn1cc(C2=C(c3c[nH]c4ccccc34)C(=O)NC2=O)c2ccccc21 [GF109203X, reference compound]
[1]
  naringenin-induced phosphorylation of VASP at Ser239 after kinase inhibitor: only small changes

## O=S(=O)(NCCNCC=Cc1ccc(Br)cc1)c1cccc2cnccc12 [H89, N-[2-(p-bromocinnamylamino)ethyl]-5-isoquinolinesulfonamide]
[2]; ADP 10 μmol/L, inhibitor 5 μmol/L, without naringenin
  level of platelet aggregation, inhibitor alone: did not affect the level of platelet aggregation
[2]; inhibitor 5 μmol/L pre-treatment, naringenin 200 μmol/L, ADP 10 μmol/L
  platelet aggregation when incubated with naringenin after kinase inhibitor: significantly restored platelet aggregation levels
[1]
  naringenin-induced phosphorylation of VASP at Ser239 after kinase inhibitor: inhibited the increase in phosphorylation of VASP at Ser239
[3]
  Aggregation (%): 62.7% and 67.1% and 68.1% and 68.8% and 64.1% and 69.2%

## C[C@@H]1O[C@@H](O[C@H]2[C@H](Oc3cc(O)c4c(c3)O[C@H](c3ccc(O)cc3)CC4=O)O[C@H](CO)[C@@H](O)[C@@H]2O)[C@H](O)[C@H](O)[C@H]1O [Naringin, naringin, reference compound]
[2]; Rattus norvegicus, Platelet, washed platelets, ADP 10 μmol/L, compound 200 μM, single replicates, read-out: Aggregation % of control
  activity at 200 µM: 72.6%
[2]; Rattus norvegicus, Platelet, washed platelets, ADP 10 μmol/L, compound 400 μM, single replicates, read-out: Aggregation % of control
  activity at 400 µM: 79.8%
[2]; washed platelets, ADP 10 μM, compound 800 μM, mean ± SD, n = 6
  ADP-induced platelet aggregation (control group taken as 100%): 70.8 ± 7.1%
[2]; washed platelets, ADP 10 μmol/L, compound 100 μM, single replicates
  Aggregation (%): 66.8% and 55.6% and 57.3% and 61.8% and 52.0% and 65.0%
[2]; washed platelets, ADP 10 μmol/L, compound 100 μM, single replicates, 100 µM
  Aggregation % of control: 94.6 % of control and 78.7 % of control and 81.1 % of control and 87.5 % of control and 73.6 % of control and 92.0 % of control
[2]; washed platelets, ADP 10 μmol/L, compound 200 μM, single replicates
  Aggregation (%): 51.3% and 57.7% and 55.0% and 59.4% and 50.0% and 54.0%
[2]; washed platelets, ADP 10 μmol/L, compound 200 μM, single replicates, 200 µM
  Aggregation % of control: 81.7 % of control and 77.8 % of control and 84.1 % of control and 70.8 % of control and 76.4 % of control
[2]; washed platelets, ADP 10 μmol/L, compound 400 μM, single replicates
  Aggregation (%): 56.4% and 55.5% and 55.4% and 51.0% and 52.3% and 46.6%
[2]; washed platelets, ADP 10 μmol/L, compound 400 μM, single replicates, 400 µM
  Aggregation % of control: 78.6 % of control and 78.4 % of control and 72.2 % of control and 74.0 % of control and 66.0 % of control
[2]; washed platelets, ADP 10 μmol/L, compound 800 μM, single replicates
  Aggregation (%): 58.1% and 48.7% and 49.2% and 43.6% and 47.5% and 53.0%
[2]; washed platelets, ADP 10 μmol/L, compound 800 μM, single replicates, 800 µM
  Aggregation % of control: 82.2 % of control and 68.9 % of control and 69.6 % of control and 61.7 % of control and 67.2 % of control and 75.0 % of control
[4]; compound 100 μM
  Aggregation (%): 56.0% and 55.8% and 53.6% and 54.0% and 60.0%
[4]; compound 100 μM, 100 µM
  Aggregation % of control: 97.5 % of control and 100.8 % of control and 93.6 % of control and 94.3 % of control and 104.8 % of control
[4]; compound 200 μM
  Aggregation (%): 54.6% and 53.1% and 52.4% and 49.6% and 54.8%
[4]; compound 200 μM, 200 µM
  Aggregation % of control: 92.8 % of control and 97.1 % of control and 91.5 % of control and 86.6 % of control and 95.7 % of control
[4]; compound 400 μM
  Aggregation (%): 55.9% and 54.0% and 46.2% and 49.8% and 51.2%
[4]; compound 400 μM, 400 µM
  Aggregation % of control: 96.9 % of control and 94.3 % of control and 80.7 % of control and 87.0 % of control and 89.4 % of control
[4]; compound 800 μM
  Aggregation (%): 46.8% and 40.4% and 51.9% and 43.4%
[4]; compound 800 μM, 800 µM
  Aggregation % of control: 85.1 % of control and 85.9 % of control and 70.6 % of control and 90.7 % of control and 75.8 % of control
[4]; Rattus norvegicus, compound 100 μM, read-out: Aggregation % of control
  activity at 100 µM: 97.8%
[4]; Rattus norvegicus, compound 200 μM, read-out: Aggregation % of control
  activity at 200 µM: 95.4%
[4]; Rattus norvegicus, compound 400 μM, read-out: Aggregation % of control
  activity at 400 µM: 97.6%
